Results taken from PubChem BioAssay AID1963864 (Molecular Pharmacology Branch, DTP, NCI, 2024).

Tested on: KRAS PDC multicell spheroid viability
Assay: Anticancer human tumor 521955-158-R6-J3-PDC patient-derived pancreatic carcinoma cell line growth inhibition [KRAS2]
Conditions: for IC50: curve of first compound; for viability, T/C: stronger effect = lower value
How it was run: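 KRAS-mutant tumor cells were grown as spheroids with HUVEC endothelial cells and human MSCs as stroma. Targeted agents were tested alone and with KRAS pathway inhibitors. Doses started at or near clinical Cmax, or 10 microM, descending half-log.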

[1] = second compound 0.0316 µM, first compound 0.0316 µM
[2] = second compound 0.0316 µM, first compound 0.1 µM
[3] = second compound 0.0316 µM, first compound 0.316 µM
[4] = second compound 0.0316 µM, first compound 1 µM
[5] = second compound 0.0316 µM, first compound 3.16 µM
[6] = second compound 0.0316 µM, first compound 10 µM
[7] = second compound 0.1 µM, first compound 0.0316 µM
[8] = second compound 0.1 µM, first compound 0.1 µM
[9] = second compound 0.1 µM, first compound 0.316 µM
[10] = second compound 0.1 µM, first compound 1 µM
[11] = second compound 0.1 µM, first compound 3.16 µM
[12] = second compound 0.1 µM, first compound 10 µM
[13] = second compound 0.316 µM, first compound 0.0316 µM
[14] = second compound 0.316 µM, first compound 0.1 µM
[15] = second compound 0.316 µM, first compound 0.316 µM
[16] = second compound 0.316 µM, first compound 1 µM
[17] = second compound 0.316 µM, first compound 3.16 µM
[18] = second compound 0.316 µM, first compound 10 µM
[19] = second compound 1 µM, first compound 0.0316 µM
[20] = second compound 1 µM, first compound 0.1 µM
[21] = second compound 1 µM, first compound 0.316 µM
[22] = second compound 1 µM, first compound 1 µM
[23] = second compound 1 µM, first compound 3.16 µM
[24] = second compound 1 µM, first compound 10 µM
[25] = second compound 3.16 µM, first compound 0.0316 µM
[26] = second compound 3.16 µM, first compound 0.1 µM
[27] = second compound 3.16 µM, first compound 0.316 µM
[28] = second compound 3.16 µM, first compound 1 µM
[29] = second compound 3.16 µM, first compound 3.16 µM
[30] = second compound 3.16 µM, first compound 10 µM
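Note: drug exposure lasted seven days.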
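Throughout, for viability, T/C: 100% = DMSO vehicle wells and lower means fewer viable cells.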

COC(=O)c1ccc2c(C(=Nc3ccc(N(C)C(=O)CN4CCN(C)CC4)cc3)c3ccccc3)c(O)[nH]c2c1 + C=CC(=O)N1CCN(c2nc(OCC3CCCN3C)nc3c2CCN(c2cccc4cccc(C)c24)C3)CC1CC#N
IC50 (second compound 0.0316 µM): 3.09 µM
IC50 (second compound 0.1 µM): 2.84 µM
IC50 (second compound 0.316 µM): 2.84 µM
IC50 (second compound 1 µM): 1.83 µM
IC50 (second compound 3.16 µM): < 0.0316 µM
viability, T/C [1]: 96.2%
viability, T/C [2]: 110%
viability, T/C [3]: 116%
viability, T/C [4]: 123%
viability, T/C [5]: 48.8%
viability, T/C [6]: 0.2%
viability, T/C [7]: 91.8%
viability, T/C [8]: 116%
viability, T/C [9]: 102%
viability, T/C [10]: 111%
viability, T/C [11]: 44.3%
viability, T/C [12]: 1.53%
viability, T/C [13]: 79.7%
viability, T/C [14]: 102%
viability, T/C [15]: 103%
viability, T/C [16]: 106%
viability, T/C [17]: 45.1%
viability, T/C [18]: 1.91%
viability, T/C [19]: 74.3%
viability, T/C [20]: 75.5%
viability, T/C [21]: 90.2%
viability, T/C [22]: 95.4%
viability, T/C [23]: 19.1%
viability, T/C [24]: 1.01%
viability, T/C [25]: 36.9%
viability, T/C [26]: 31.4%
viability, T/C [27]: 37.8%
viability, T/C [28]: 5.71%
viability, T/C [29]: 1.1%
viability, T/C [30]: 0.76%

COc1cc(Nc2ncc3c(n2)-c2ccc(Cl)cc2C(c2c(F)cccc2OC)=NC3)ccc1C(=O)O + C=CC(=O)N1CCN(c2nc(OCC3CCCN3C)nc3c2CCN(c2cccc4cccc(C)c24)C3)CC1CC#N
IC50 (second compound 0.0316 µM): > 10 µM
IC50 (second compound 0.1 µM): > 10 µM
IC50 (second compound 0.316 µM): > 10 µM
IC50 (second compound 1 µM): > 10 µM
IC50 (second compound 3.16 µM): < 0.0316 µM
viability, T/C [1]: 95.3%
viability, T/C [2]: 86.4%
viability, T/C [3]: 87.3%
viability, T/C [4]: 88.1%
viability, T/C [5]: 89.5%
viability, T/C [6]: 83.6%
viability, T/C [7]: 92.2%
viability, T/C [8]: 91%
viability, T/C [9]: 87.7%
viability, T/C [10]: 91%
viability, T/C [11]: 92%
viability, T/C [12]: 97.9%
viability, T/C [13]: 86.2%
viability, T/C [14]: 87.4%
viability, T/C [15]: 79.8%
viability, T/C [16]: 78.1%
viability, T/C [17]: 85.9%
viability, T/C [18]: 86.4%
viability, T/C [19]: 78%
viability, T/C [20]: 66%
viability, T/C [21]: 82.2%
viability, T/C [22]: 76.1%
viability, T/C [23]: 82.7%
viability, T/C [24]: 77.3%
viability, T/C [25]: 25.6%
viability, T/C [26]: 25.7%
viability, T/C [27]: 18.3%
viability, T/C [28]: 53.4%
viability, T/C [29]: 59.4%
viability, T/C [30]: 29.2%

O=C(c1cc(Cc2n[nH]c(=O)c3ccccc23)ccc1F)N1CCN(C(=O)C2CC2)CC1 + C=CC(=O)N1CCN(c2nc(OCC3CCCN3C)nc3c2CCN(c2cccc4cccc(C)c24)C3)CC1CC#N
IC50 (second compound 0.0316 µM): > 10 µM
IC50 (second compound 0.1 µM): > 10 µM
IC50 (second compound 0.316 µM): > 10 µM
IC50 (second compound 1 µM): > 10 µM
IC50 (second compound 3.16 µM): < 0.0316 µM
viability, T/C [1]: 90%
viability, T/C [2]: 97%
viability, T/C [3]: 96.7%
viability, T/C [4]: 96.4%
viability, T/C [5]: 89.4%
viability, T/C [6]: 111%
viability, T/C [7]: 97.9%
viability, T/C [8]: 96.4%
viability, T/C [9]: 97.5%
viability, T/C [10]: 83.5%
viability, T/C [11]: 87.5%
viability, T/C [12]: 101%
viability, T/C [13]: 97.5%
viability, T/C [14]: 107%
viability, T/C [15]: 103%
viability, T/C [16]: 84.9%
viability, T/C [17]: 87.3%
viability, T/C [18]: 93.6%
viability, T/C [19]: 89.9%
viability, T/C [20]: 95.3%
viability, T/C [21]: 79%
viability, T/C [22]: 73.4%
viability, T/C [23]: 86.2%
viability, T/C [24]: 90.5%
viability, T/C [25]: 42.9%
viability, T/C [26]: 31.2%
viability, T/C [27]: 24.1%
viability, T/C [28]: 24.4%
viability, T/C [29]: 39.9%
viability, T/C [30]: 12.4%
